Measurements: US9273057B2 (Bristol-Myers Squibb Company, priority 2012, dated 2016)
Counter-ions that a name gives are not always drawn.

Molecular target: CK2A1 (CK2α/β) (Homo sapiens, UniProt P68400)
Test: CK2 kinase assay, CK2A1 (CK2α/β)
Type: biochemical
Details: Table A; read-out: CK2A1 (CK2α/β) (IC50)

Sequence of CK2A1 (CK2α/β) (P68400 whole entry, species assumed): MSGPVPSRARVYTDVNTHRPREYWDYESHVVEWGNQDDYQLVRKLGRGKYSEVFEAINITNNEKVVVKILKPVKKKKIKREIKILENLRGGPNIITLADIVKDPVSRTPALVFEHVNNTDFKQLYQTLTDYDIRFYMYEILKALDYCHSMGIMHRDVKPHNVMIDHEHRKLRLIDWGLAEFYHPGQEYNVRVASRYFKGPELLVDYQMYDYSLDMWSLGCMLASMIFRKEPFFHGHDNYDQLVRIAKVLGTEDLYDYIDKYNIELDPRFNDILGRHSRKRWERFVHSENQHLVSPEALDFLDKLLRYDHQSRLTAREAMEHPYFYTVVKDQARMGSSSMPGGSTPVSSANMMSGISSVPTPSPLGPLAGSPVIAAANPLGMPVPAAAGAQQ
Sequence of CK2A1 (CK2α/β) (P67870 whole entry partner, species assumed): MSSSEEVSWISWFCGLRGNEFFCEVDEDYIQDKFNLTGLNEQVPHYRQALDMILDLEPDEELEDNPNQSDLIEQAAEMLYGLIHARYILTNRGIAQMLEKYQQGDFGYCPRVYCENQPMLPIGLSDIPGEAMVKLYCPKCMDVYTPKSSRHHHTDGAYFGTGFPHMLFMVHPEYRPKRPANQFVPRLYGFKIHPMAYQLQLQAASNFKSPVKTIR

Structure (SMILES) | IC50
CCNc1nc(Nc2cc(C#N)cc(N3CCC(NC4COC4)CC3)c2Cl)nn2c(C#N)cnc12 [Example 363, 2-((2-chloro-5-cyano-3-(4-(oxetan-3-ylamino)piperidin-1-yl)phenyl)amino)-4-(ethylamino)imidazo[2,1-f][1,2,4]triazine-7-carbonitrile] | 0.78 nM
CC1(O)CN([C@@H]2CCN(c3cc(C#N)cc(Nc4nc(NC5CC5)c5ncc(C#N)n5n4)c3Cl)C2)C1 [Example 47, (R)-2-(2-chloro-5-cyano-3-(3-(3-hydroxy-3-methylazetidin-1-yl)pyrrolidin-1-yl)phenylamino)-4-(cyclopropylamino)imidazo [1,2-f][1,2,4]triazine-7-carbonitrile] | 1.73 nM
CN1CCN(c2cc(C#N)cc(Nc3nc(NC4CC4)c4ncc(C#N)n4n3)c2Cl)C(=O)C1 [Example 618, 2-((2-chloro-5-cyano-3-(4-methyl-2-oxopiperazin-1-yl)phenyl)amino)-4-(cyclopropylamino)imidazo[2,1-f][1,2,4]triazine-7-carbonitrile] | 2.07 nM
CN1CCC(N2CC(O)(c3cc(C#N)cc(Nc4nc(NC5CC5)c5ncc(C#N)n5n4)c3Cl)C2)CC1 [Example 647, 2-((2-chloro-5-cyano-3-(3-hydroxy-1-(1-methylpiperidin-4-yl)azetidin-3-yl)phenyl)amino)-4-(cyclopropylamino)imidazo[2,1-f][1,2,4]triazine-7-carbonitrile] | 1.94 nM
CCNc1nc(Nc2cc(C#N)cc(NCCO)c2Cl)nn2c(C#N)cnc12 [Example 630, 2-((2-chloro-5-cyano-3-((2-hydroxyethyl)amino)phenyl)amino)-4-(ethylamino)imidazo[2,1-f][1,2,4]triazine-7-carbonitrile] | 0.68 nM

Further compounds by falling IC50, results first:

IC50 | Structure (SMILES)
3.73 nM | N#Cc1cc(Nc2nc(NC3CC3)c3ncc(C#N)n3n2)c(Cl)c(C(O)C(F)(F)F)c1 (racemic) [Example 680, (+/−)-2-((2-chloro-5-cyano-3-(2,2,2-trifluoro-1-hydroxyethyl)phenyl)amino)-4-(cyclopropylamino)imidazo[2,1-f][1,2,4]triazine-7-carbonitrile]
2.51 nM | COC(=O)Nc1cc(Nc2nc(NC3CC3)c3ncc(C#N)n3n2)c(Cl)c(N2CCN(C)CC2)c1 [Example 200, methyl (4-chloro-3-((7-cyano-4-(cyclopropylamino)imidazo[2,1-f][1,2,4]triazin-2-yl)amino)-5-(4-methylpiperazin-1-yl)phenyl)carbamate]
1 nM | CCN1CCN(c2cc(C#N)cc(Nc3nc(NC4CC4)c4ncc(C#N)n4n3)c2Cl)C(=O)C1 [Example 636, 2-((2-chloro-5-cyano-3-(4-ethyl-2-oxopiperazin-1-yl)phenyl)amino)-4-(cyclopropylamino)imidazo[2,1-f][1,2,4]triazine-7-carbonitrile]
0.65 nM | CO[C@@H]1CN(c2cc(C#N)cc(Nc3nc(NC4CC4)c4ncc(C#N)n4n3)c2Cl)C[C@H]1O (racemic) [Example 305, (+/−)-2-((2-chloro-5-cyano-3-((3R,4R)-3-hydroxy-4-methoxypyrrolidin-1-yl)phenyl)amino)-4-(cyclopropylamino)imidazo[2,1-f][1,2,4]triazine-7-carbonitrile, HCl]
0.32 nM | CC(O)(CO)c1cc(C#N)cc(Nc2nc(NC3CC3)c3ncc(C#N)n3n2)c1Cl (racemic) [Example 682, (+/−)-2-((2-chloro-5-cyano-3-(1,2-dihydroxypropan-2-yl)phenyl)amino)-4-(cyclopropylamino)imidazo[2,1-f][1,2,4]triazine-7-carbonitrile]
0.14 nM | N#Cc1cc(CN=[N+]=[N-])c(Cl)c(Nc2nc(NC3CC3)c3ncc(C#N)n3n2)c1 [Example 683, 2-((3-(azidomethyl)-2-chloro-5-cyanophenyl)amino)-4-(cyclopropylamino)imidazo[2,1-f][1,2,4]triazine-7-carbonitrile]
